Data taken from PubChem BioAssay (NCI).
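Values below derive from 48-hour exposures of cells grown in 96-well plates, with endpoints linearly interpolated between the two concentrations bracketing the appropriate inhibition level. GI50: concentration for 50% inhibition of growth. TGI denotes the concentration required for complete inhibition of growth.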

Assays:
Test in all cases: growth of human tumour cells (NCI), 48 h
MDA-MB-231 breast = test system: MDA-MB-231 breast
RPMI-8226 leukemia = test system: RPMI-8226 leukemia
A498 renal = test system: A498 renal
HCT-15 colon = test system: HCT-15 colon
K-562 leukemia = test system: K-562 leukemia
KM12 colon = test system: KM12 colon
SNB-75 CNS = test system: SNB-75 CNS
BT-549 breast = test system: BT-549 breast
SK-MEL-2 melanoma = test system: SK-MEL-2 melanoma
SR leukemia = test system: SR leukemia
EKVX NSCLC = test system: EKVX NSCLC
NCI/ADR-RES ovarian = test system: NCI/ADR-RES ovarian
HOP-62 NSCLC = test system: HOP-62 NSCLC
UACC-257 melanoma = test system: UACC-257 melanoma
A549 NSCLC = test system: A549 NSCLC
OVCAR-5 ovarian = test system: OVCAR-5 ovarian
NCI-H23 lung = test system: NCI-H23 lung
OVCAR-3 ovarian = test system: OVCAR-3 ovarian
T-47D breast = test system: T-47D breast
HOP-92 NSCLC = test system: HOP-92 NSCLC
IGROV1 ovarian = test system: IGROV1 ovarian
CCRF-CEM leukemia = test system: CCRF-CEM leukemia
SF-268 CNS = test system: SF-268 CNS
MOLT-4 leukemia = test system: MOLT-4 leukemia
M14 melanoma = test system: M14 melanoma
SN12C renal = test system: SN12C renal
RXF 393 renal = test system: RXF 393 renal
LOX IMVI melanoma = test system: LOX IMVI melanoma
NCI-H460 lung = test system: NCI-H460 lung
MALME-3M melanoma = test system: MALME-3M melanoma
HS 578T breast = test system: HS 578T breast
COLO 205 colon = test system: COLO 205 colon
SK-MEL-5 melanoma = test system: SK-MEL-5 melanoma
MCF7 breast = test system: MCF7 breast
NCI-H226 lung = test system: NCI-H226 lung
MDA-MB-435 = test system: MDA-MB-435
SK-MEL-28 melanoma = test system: SK-MEL-28 melanoma
SF-539 CNS = test system: SF-539 CNS
SW-620 colon = test system: SW-620 colon
UACC-62 melanoma = test system: UACC-62 melanoma
SNB-19 CNS = test system: SNB-19 CNS
NCI-H522 lung = test system: NCI-H522 lung
CAKI-1 renal = test system: CAKI-1 renal
UO-31 renal = test system: UO-31 renal
HCC-2998 colon = test system: HCC-2998 colon
HT29 colon = test system: HT29 colon
SK-OV-3 ovarian = test system: SK-OV-3 ovarian
TK-10 renal = test system: TK-10 renal
OVCAR-8 ovarian = test system: OVCAR-8 ovarian
DU-145 prostate = test system: DU-145 prostate
HCT-116 colon = test system: HCT-116 colon
SF-295 CNS = test system: SF-295 CNS
HL-60(TB) leukemia = test system: HL-60(TB) leukemia
PC-3 prostate = test system: PC-3 prostate
ACHN renal = test system: ACHN renal
OVCAR-4 ovarian = test system: OVCAR-4 ovarian
786-0 renal = test system: 786-0 renal
U251 CNS = test system: U251 CNS

Work on `CN1CCN(Cc2ccc(NC(=O)c3cncc(C#Cc4cnc5ccc(N6CCN(C)CC6)nn45)c3)cc2C(F)(F)F)CC1` yielded a GI50 (MDA-MB-231 breast) of 751 nM, a TGI (MDA-MB-231 breast) of 2350 nM and a GI50 (RPMI-8226 leukemia) of 2050 nM. For the same compound, the TGI (RPMI-8226 leukemia) was 7410 nM, the GI50 (A498 renal) was 2130 nM and the TGI (A498 renal) was 3610 nM. The GI50 (HCT-15 colon) was 1430 nM, the TGI (HCT-15 colon) was 3370 nM and the GI50 (K-562 leukemia) was 57.6 nM. The TGI (K-562 leukemia) was 1630 nM, the GI50 (KM12 colon) was 29.2 nM and the TGI (KM12 colon) was 1390 nM. For the same compound, the GI50 (SNB-75 CNS) was 1490 nM, the TGI (SNB-75 CNS) was 2950 nM and the GI50 (BT-549 breast) was 1440 nM. It also gave a TGI (BT-549 breast) of 2880 nM, a GI50 (SK-MEL-2 melanoma) of 10700 nM and a TGI (SK-MEL-2 melanoma) of 23300 nM. It also gave a GI50 (SR leukemia) of 781 nM, a TGI (SR leukemia) of 2920 nM and a GI50 (EKVX NSCLC) of 1300 nM. It also gave a TGI (EKVX NSCLC) of 2840 nM, a GI50 (NCI/ADR-RES ovarian) of 1810 nM and a TGI (NCI/ADR-RES ovarian) of 3640 nM. The GI50 (HOP-62 NSCLC) was 2060 nM, the TGI (HOP-62 NSCLC) was 7020 nM and the GI50 (UACC-257 melanoma) was 4980 nM. It also gave a TGI (UACC-257 melanoma) of 18800 nM, a GI50 (A549 NSCLC) of 1620 nM and a TGI (A549 NSCLC) of 3910 nM. It also gave a GI50 (OVCAR-5 ovarian) of 1830 nM, a TGI (OVCAR-5 ovarian) of 4220 nM and a GI50 (NCI-H23 lung) of 1370 nM. For the same compound, the TGI (NCI-H23 lung) was 2960 nM, the GI50 (OVCAR-3 ovarian) was 2150 nM and the TGI (OVCAR-3 ovarian) was 4110 nM. It also gave a GI50 (T-47D breast) of 18000 nM, a TGI (T-47D breast) of 41800 nM and a GI50 (HOP-92 NSCLC) of 1340 nM. For the same compound, the TGI (HOP-92 NSCLC) was 8480 nM, the GI50 (IGROV1 ovarian) was 1750 nM and the TGI (IGROV1 ovarian) was 4160 nM. The GI50 (CCRF-CEM leukemia) was 1940 nM, the TGI (CCRF-CEM leukemia) was 6470 nM and the GI50 (SF-268 CNS) was 1530 nM. It also gave a TGI (SF-268 CNS) of 3200 nM, a GI50 (MOLT-4 leukemia) of 1330 nM and a TGI (MOLT-4 leukemia) of 3510 nM. The GI50 (M14 melanoma) was 1580 nM, the TGI (M14 melanoma) was 3240 nM and the GI50 (SN12C renal) was 1150 nM. For the same compound, the TGI (SN12C renal) was 2560 nM, the GI50 (RXF 393 renal) was 786 nM and the TGI (RXF 393 renal) was 2080 nM. For the same compound, the GI50 (LOX IMVI melanoma) was 1160 nM, the TGI (LOX IMVI melanoma) was 2420 nM and the GI50 (NCI-H460 lung) was 1870 nM. It also gave a TGI (NCI-H460 lung) of 4050 nM, a GI50 (MALME-3M melanoma) of 2570 nM and a TGI (MALME-3M melanoma) of 11200 nM. The GI50 (HS 578T breast) was 1710 nM, the TGI (HS 578T breast) was 6570 nM and the GI50 (COLO 205 colon) was 1580 nM. It also gave a TGI (COLO 205 colon) of 3630 nM, a GI50 (SK-MEL-5 melanoma) of 1530 nM and a TGI (SK-MEL-5 melanoma) of 2910 nM. The GI50 (MCF7 breast) was 835 nM, the TGI (MCF7 breast) was 2400 nM and the GI50 (NCI-H226 lung) was 436 nM. For the same compound, the TGI (NCI-H226 lung) was 10700 nM, the GI50 (MDA-MB-435) was 1410 nM and the TGI (MDA-MB-435) was 3060 nM. For the same compound, the GI50 (SK-MEL-28 melanoma) was 11900 nM, the TGI (SK-MEL-28 melanoma) was 24400 nM and the GI50 (SF-539 CNS) was 414 nM. It also gave a TGI (SF-539 CNS) of 1740 nM, a GI50 (SW-620 colon) of 2120 nM and a TGI (SW-620 colon) of 6990 nM. It also gave a GI50 (UACC-62 melanoma) of 14500 nM, a TGI (UACC-62 melanoma) of 27800 nM and a GI50 (SNB-19 CNS) of 2290 nM. It also gave a TGI (SNB-19 CNS) of 4630 nM, a GI50 (NCI-H522 lung) of 1440 nM and a TGI (NCI-H522 lung) of 2960 nM. The GI50 (CAKI-1 renal) was 1670 nM, the TGI (CAKI-1 renal) was 3280 nM and the GI50 (UO-31 renal) was 3750 nM. It also gave a TGI (UO-31 renal) of 14500 nM, a GI50 (HCC-2998 colon) of 1640 nM and a TGI (HCC-2998 colon) of 3050 nM. For the same compound, the GI50 (HT29 colon) was 1180 nM, the TGI (HT29 colon) was 3430 nM and the GI50 (SK-OV-3 ovarian) was 15000 nM. It also gave a TGI (SK-OV-3 ovarian) of 30700 nM, a GI50 (TK-10 renal) of 2060 nM and a TGI (TK-10 renal) of 4290 nM. It also gave a GI50 (OVCAR-8 ovarian) of 1760 nM, a TGI (OVCAR-8 ovarian) of 3630 nM and a GI50 (DU-145 prostate) of 1590 nM. It also gave a TGI (DU-145 prostate) of 2940 nM, a GI50 (HCT-116 colon) of 1050 nM and a TGI (HCT-116 colon) of 2620 nM. It also gave a GI50 (SF-295 CNS) of 1470 nM, a TGI (SF-295 CNS) of 2980 nM and a GI50 (HL-60(TB) leukemia) of 2180 nM. For the same compound, the TGI (HL-60(TB) leukemia) was 4110 nM, the GI50 (PC-3 prostate) was 1660 nM and the TGI (PC-3 prostate) was 5100 nM. For the same compound, the GI50 (ACHN renal) was 1330 nM, the TGI (ACHN renal) was 2620 nM and the GI50 (OVCAR-4 ovarian) was 1230 nM. The TGI (OVCAR-4 ovarian) was 3010 nM, the GI50 (786-0 renal) was 1550 nM and the TGI (786-0 renal) was 3110 nM. For the same compound, the GI50 (U251 CNS) was 1660 nM and the TGI (U251 CNS) was 3320 nM.
